Assay results: the NIST ThermoML archive (doi:10.1016/j.jct.2019.03.040)

How the values were obtained:
[1] = Liquid; for thermal diffusivity: 101.33 kPa, Laser flash apparatus
[2] = molar heat capacity at constant pressure; details: 101.33 kPa, Liquid, Small sample (50 mg) DSC

COC(=O)CCC(C)=O [methyl levulinate]
Details	Critical pressure [kPa]	Critical temperature [K]	molar heat capacity at constant pressure [J/K/mol]	thermal diffusivity [m2/s]
[1], 303.15 K	–	–	–	8e-08
[1], 313.15 K	–	–	–	7.9e-08
[1], 323.15 K	–	–	–	7.85e-08
[1], 333.15 K	–	–	–	7.7e-08
[1], 343.15 K	–	–	–	7.6e-08
[1], 353.15 K	–	–	–	7.5e-08
[1], 363.15 K	–	–	–	7.35e-08
[1], 373.15 K	–	–	–	7.25e-08
[1], Resistive pulse heating	3270	668	–	–
[2], 302.68 K	–	–	258.85	–
[2], 303.18 K	–	–	259.11	–
[2], 303.68 K	–	–	258.98	–
[2], 304.18 K	–	–	259.24	–
[2], 304.68 K	–	–	258.98	–
[2], 305.18 K	–	–	258.72	–
[2], 305.68 K	–	–	259.11	–
[2], 306.18 K	–	–	258.85	–
[2], 306.68 K	–	–	258.98	–
[2], 307.18 K	–	–	259.5	–
[2], 307.68 K	–	–	259.63	–
[2], 308.18 K	–	–	259.89	–
[2], 308.68 K	–	–	260.15	–
[2], 309.18 K	–	–	259.89	–
[2], 309.68 K	–	–	259.63	–
[2], 310.18 K	–	–	259.76	–
[2], 310.68 K	–	–	259.37	–
[2], 311.18 K	–	–	259.37	–
[2], 311.68 K	–	–	259.5	–
[2], 312.18 K	–	–	259.76	–
[2], 312.68 K	–	–	259.89	–
[2], 313.18 K	–	–	259.76	–
[2], 313.68 K	–	–	260.15	–
[2], 314.18 K	–	–	260.02	–
[2], 314.68 K	–	–	260.54	–
[2], 315.18 K	–	–	260.15	–
[2], 315.68 K	–	–	260.02	–
[2], 316.18 K	–	–	259.89	–
[2], 316.68 K	–	–	260.8	–
[2], 317.18 K	–	–	260.93	–
[2], 317.68 K	–	–	260.8	–
[2], 318.18 K	–	–	261.06	–
[2], 318.68 K	–	–	261.06	–
[2], 319.18 K	–	–	261.19	–
[2], 319.68 K	–	–	261.06	–
[2], 320.18 K	–	–	260.93	–
[2], 320.68 K	–	–	261.06	–
[2], 321.18 K	–	–	261.19	–
[2], 321.68 K	–	–	261.32	–
[2], 322.18 K	–	–	261.06	–
[2], 322.68 K	–	–	260.8	–
[2], 323.18 K	–	–	261.32	–
[2], 323.68 K	–	–	261.32	–
[2], 324.18 K	–	–	261.45	–
[2], 324.68 K	–	–	261.72	–
[2], 325.18 K	–	–	261.59	–
[2], 325.68 K	–	–	261.85	–
[2], 326.18 K	–	–	261.98	–
[2], 326.68 K	–	–	262.11	–
[2], 327.18 K	–	–	262.11	–
[2], 327.68 K	–	–	262.24	–
[2], 328.18 K	–	–	262.37	–
[2], 328.68 K	–	–	262.63	–
[2], 329.18 K	–	–	262.76	–
[2], 329.68 K	–	–	262.63	–
[2], 330.18 K	–	–	262.63	–
[2], 330.68 K	–	–	263.02	–
[2], 331.18 K	–	–	263.15	–
[2], 331.68 K	–	–	263.15	–
[2], 332.18 K	–	–	263.93	–
[2], 332.68 K	–	–	263.8	–
[2], 333.18 K	–	–	264.06	–
[2], 333.68 K	–	–	263.93	–
[2], 334.18 K	–	–	264.06	–
[2], 334.68 K	–	–	264.45	–
[2], 335.18 K	–	–	264.45	–
[2], 335.68 K	–	–	264.19	–
[2], 336.18 K	–	–	264.19	–
[2], 336.68 K	–	–	264.58	–
[2], 337.18 K	–	–	264.45	–
[2], 337.68 K	–	–	264.32	–
[2], 338.18 K	–	–	264.45	–
[2], 338.68 K	–	–	264.45	–
[2], 339.18 K	–	–	265.1	–
[2], 339.68 K	–	–	265.36	–
[2], 340.18 K	–	–	264.97	–
[2], 340.68 K	–	–	264.84	–
[2], 341.18 K	–	–	264.97	–
[2], 341.68 K	–	–	265.49	–
[2], 342.18 K	–	–	265.49	–
[2], 342.68 K	–	–	265.62	–
[2], 343.18 K	–	–	265.75	–
[2], 343.68 K	–	–	266.01	–
[2], 344.18 K	–	–	266.4	–
[2], 344.68 K	–	–	266.27	–
[2], 345.18 K	–	–	266.27	–
[2], 345.68 K	–	–	266.4	–
[2], 346.18 K	–	–	266.79	–
[2], 346.68 K	–	–	266.4	–
[2], 347.18 K	–	–	266.79	–
[2], 347.68 K	–	–	266.66	–
[2], 348.18 K	–	–	266.92	–
[2], 348.68 K	–	–	267.31	–
[2], 349.18 K	–	–	266.92	–
[2], 349.68 K	–	–	267.18	–
[2], 350.18 K	–	–	267.7	–
[2], 350.68 K	–	–	267.7	–
[2], 351.18 K	–	–	268.09	–
[2], 351.68 K	–	–	268.09	–
[2], 352.18 K	–	–	267.96	–
[2], 352.68 K	–	–	268.48	–
[2], 353.18 K	–	–	268.61	–
[2], 353.68 K	–	–	268.61	–
[2], 354.18 K	–	–	268.48	–
[2], 354.68 K	–	–	268.48	–
[2], 355.18 K	–	–	268.87	–
[2], 355.68 K	–	–	268.87	–
[2], 356.18 K	–	–	268.87	–
[2], 356.68 K	–	–	269.13	–
[2], 357.18 K	–	–	269.39	–
[2], 357.68 K	–	–	269.78	–
[2], 358.18 K	–	–	269.91	–
[2], 358.68 K	–	–	269.65	–
[2], 359.18 K	–	–	270.17	–
[2], 359.68 K	–	–	270.3	–
[2], 360.18 K	–	–	270.56	–
[2], 360.68 K	–	–	270.83	–
[2], 361.18 K	–	–	270.96	–
[2], 361.68 K	–	–	270.56	–
[2], 362.18 K	–	–	270.56	–
[2], 362.68 K	–	–	270.56	–
[2], 363.18 K	–	–	271.09	–
[2], 363.68 K	–	–	270.96	–
[2], 364.18 K	–	–	271.22	–
[2], 364.68 K	–	–	271.48	–
[2], 365.18 K	–	–	271.74	–
[2], 365.68 K	–	–	271.74	–
[2], 366.18 K	–	–	271.87	–
[2], 366.68 K	–	–	271.87	–
[2], 367.18 K	–	–	271.87	–
[2], 367.68 K	–	–	272.39	–
[2], 368.18 K	–	–	272.52	–
[2], 368.68 K	–	–	272.65	–
[2], 369.18 K	–	–	273.04	–
[2], 369.68 K	–	–	273.04	–
[2], 370.18 K	–	–	272.78	–
[2], 370.68 K	–	–	272.91	–
[2], 371.18 K	–	–	273.3	–
[2], 371.68 K	–	–	273.56	–
[2], 372.18 K	–	–	273.56	–
[2], 372.68 K	–	–	273.56	–
[2], 373.18 K	–	–	273.82	–
[2], 373.68 K	–	–	273.69	–
